According to US9657351B2, “MRNA-based gene expression for personalizing patient cancer therapy with an MDM2 antagonist” (Hoffmann-La Roche Inc., priority 2013, dated 2017):

Key:
Experiment in all cases: COMPOUND A In Vitro Assay
Format in all cases: cell-based
T-47D = details: Homo sapiens, T47D, Breast, mammary gland, TP53 Mutant
Method in brief: (§1)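 For this panel of human cancer lines, COMPOUND A was applied in high-throughput screening assays and responses were converted to IC50. A line was considered sensitive when its IC50 was no more than 1, and resistant when it reached 10 or above.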

A-172 = details: Homo sapiens
Method in brief: as §1

SK-N-AS = details: Homo sapiens, Brain, TP53 Mutant
Method in brief: as §1

NCI-H2023 = details: Homo sapiens, Lung, TP53 Mutant
Method in brief: as §1

BT-483 = details: Homo sapiens, Breast, mammary gland, TP53 Mutant
Method in brief: as §1

AGS = details: Homo sapiens
Method in brief: as §1

NIH:OVCAR-3 = details: Homo sapiens, Ovary, TP53 Mutant
Method in brief: as §1

SH-SY5Y = details: Homo sapiens
Method in brief: as §1

Capan-2 = details: Homo sapiens, Pancreas, TP53 Mutant
Method in brief: as §1

U266B1 = details: Homo sapiens
Method in brief: as §1

NOMO-1 = details: Homo sapiens, Bone marrow, TP53 Mutant
Method in brief: as §1

NCI-N87 = details: Homo sapiens, Stomach, TP53 Mutant
Method in brief: as §1

SK-N-SH = details: Homo sapiens
Method in brief: as §1

HEC-1-A = details: Homo sapiens, Uterus, endometrium, TP53 Mutant
Method in brief: as §1

HCC1599 = details: Homo sapiens, Breast, mammary gland, TP53 Mutant
Method in brief: as §1

ZR-75-1 = details: Homo sapiens
Method in brief: as §1

PLC/PRF/5 = details: Homo sapiens, Liver, TP53 Mutant
Method in brief: as §1

8305C = details: Homo sapiens, Thyroid gland, TP53 Mutant
Method in brief: as §1

U-138 MG = details: Homo sapiens, U138-MG, Brain, TP53 Mutant
Method in brief: as §1

CAMA-1 = details: Homo sapiens, Breast, mammary gland, TP53 Mutant
Method in brief: as §1

CCRF-CEM = details: Homo sapiens, Lymphocyte T, peripheral blood, TP53 Mutant
Method in brief: as §1

SNU-16 = details: Homo sapiens, Stomach, TP53 Mutant
Method in brief: as §1

NCI-H1299 = details: Homo sapiens, Lung, TP53 Mutant
Method in brief: as §1

NCI-H1755 = details: Homo sapiens, Lung, TP53 Mutant
Method in brief: as §1

NCI-H2227 = details: Homo sapiens, Lung, TP53 Mutant
Method in brief: as §1

SW837 = details: Homo sapiens, Intestine, large, rectum, TP53 Mutant
Method in brief: as §1

HT-1080 = details: Homo sapiens
Method in brief: as §1

ME-180 = details: Homo sapiens, Cervix, TP53 Wild type
Method in brief: as §1

NCCIT = details: Homo sapiens, Germ cell, gametocyte, TP53 Mutant
Method in brief: as §1

U-87 MG = details: Homo sapiens
Method in brief: as §1

HARA = details: Homo sapiens, Lung, TP53 Mutant
Method in brief: as §1

SCC-15 = details: Homo sapiens, Tongue, TP53 Mutant
Method in brief: as §1

TCCSUP = details: Homo sapiens, TCC-SUP, Urinary, bladder, TP53 Mutant
Method in brief: as §1

Kasumi-1 = details: Homo sapiens, Lymphocyte, peripheral blood, TP53 Mutant
Method in brief: as §1

T24 = details: Homo sapiens, T-24, Urinary, bladder, TP53 Mutant
Method in brief: as §1

CCOc1cc(C(C)(C)C)ccc1C1=N[C@@](C)(c2ccc(Cl)cc2)[C@@](C)(c2ccc(Cl)cc2)N1C(=O)N1CCN(CCCS(C)(=O)=O)CC1 [COMPOUND A]
IC50 (T-47D): 9.9 µM | IC50 (A-172; A 172, A-172, Brain, TP53 Wild type): 0.58 µM | IC50 (A-172; A 172, A-172 cells): 0.6 µM | IC50 (SK-N-AS): 13 µM | IC50 (NCI-H2023): 5.8 µM | IC50 (BT-483): 20 µM | IC50 (AGS; AGS cells): 0.1 µM | IC50 (AGS; Stomach, TP53 Wild type): 0.13 µM | IC50 (NIH:OVCAR-3): 17 µM | IC50 (SH-SY5Y; Brain, TP53 Wild type): 0.75 µM | IC50 (SH-SY5Y; SH-SY5Y cells): 0.8 µM | IC50 (Capan-2): 9.1 µM | IC50 (U266B1; U266B1, Lymphocyte B, TP53 Mutant): 18 µM | IC50 (U266B1; U266B1 cells): 18 µM | IC50 (NOMO-1): 6.3 µM | IC50 (NCI-N87): 12 µM | IC50 (SK-N-SH; Brain, TP53 Wild type): 0.21 µM | IC50 (SK-N-SH; SK-N-SH cells): 0.2 µM | IC50 (HEC-1-A): 16 µM | IC50 (HCC1599): 12 µM | IC50 (ZR-75-1; ZR-75-1, ZR-75-1, Breast, mammary gland, TP53 Wild type): 0.076 µM | IC50 (ZR-75-1; ZR-75-1, ZR-75-1 cells): 0.1 µM | IC50 (PLC/PRF/5): 7 µM | IC50 (8305C): 24 µM | IC50 (U-138 MG): 29 µM | IC50 (CAMA-1): 22 µM | IC50 (CCRF-CEM): 9.7 µM | IC50 (SNU-16): 10 µM | IC50 (NCI-H1299): 15 µM | IC50 (NCI-H1755): 7.8 µM | IC50 (NCI-H2227): 16 µM | IC50 (SW837): 12 µM | IC50 (HT-1080; HT-1080, HT-1080, Connective tissue, TP53 Wild type): 0.058 µM | IC50 (HT-1080; HT-1080, HT-1080 cells): 0.1 µM | IC50 (ME-180): 9.3 µM | IC50 (NCCIT): 11 µM | IC50 (U-87 MG; Brain, TP53 Wild type): 0.18 µM | IC50 (U-87 MG; U-87 MG cells): 0.2 µM | IC50 (HARA): 19 µM | IC50 (SCC-15): 20 µM | IC50 (TCCSUP): 16 µM | IC50 (Kasumi-1): 21 µM | IC50 (T24): 21 µM
